Legend:
Assay type in all cases: cell-based
[1] = test system: Escherichia coli(δ); assay: Production by secretion in microbial culture system, cellulase expressing strain (Table 5); details: SDS-PAGE
[2] = test system: Shewanella putrefaciens; assay: Production by secretion in microbial culture system, Shewanella (Table 6); details: surfactant 1 wt %; for Dried cell density: after 48 hours culturing; for Quantitative value of produced recombinant protein: supernatant, protein band around 45 kDa, SDS-PAGE
Experimental: An overnight culture solution (10 ml) of Shewanella putrefaciens was prepared and inoculated in 1 L of a culture solution (10 g of polypeptone (Nihon Pharmaceutical Co., Ltd.), 2 g of yeast extract (Nihon Pharmaceutical Co., Ltd.), 0.5 g of magnesium sulfate heptahydrate, 750 mL of Seawater (Daigo)) and was shake-cultured at 30° C. for 5 hours. In this manner a pre-culture solution was prepared. The pre-culture solution was inoculated in 10 L of a culture solution (200 g of polypeptone (Nihon Pharmaceutical Co., Ltd.), 40 g of yeast extract (Nihon Pharmaceutical Co., Ltd.), 10 g of magnesium sulfate heptahydrate, 7.5 L of Seawater (Daigo)). Culturing thereof was initiated with use of a microbial culture system (ABLE Corporation), while the pH value and the temperature were maintained at 7.3 and 30° C. After 48 hours from the initiation of culturing, the culture solution was recovered and centrifuged. The whole protein of the obtained supernatant fragment was analyzed by SDS-PAGE and the protein band around 45 kDa was quantified.
The dried cell density when the culturing is terminated was determined by the following processes (1) to (5):
(§1) The dried cell density was determined by assigning the measuring results in the process (5) and the process (1) and the volume (L) of the culture solution used in the process (2) to the following formula: Dried cell density (g/L)=([measuring result in process (5)]−[measuring result in process (1)])/0.1.
The same processes as in Comparative Example 5 were carried out except that, after culturing in the microbial culture system was initiated, the surfactant A-14 was added to the culture solution in an amount of 1% by weight on the basis of the weight of the culture solution.
The same processes as in Comparative Example 5 were carried out except that, after culturing in the microbial culture system was initiated, the surfactant A-7 was added to the culture solution in an amount of 1% by weight on the basis of the weight of the culture solution.

[3] = test system: Escherichia coli(δ); assay: Production by secretion in microbial culture system, cellulase expressing strain (Table 5); design: key to Turbidity: (measured turbidity of diluted culture − blank) × dilution rate; details: for Dried cell density: obtained from turbidity; for Quantitative value of produced recombinant protein: SDS-PAGE
Experimental: A bglC gene of Bacillus licheniformis was amplified by the PCR method using primers 9 and 10 (Table 4). After being treated with restriction enzymes NcoI and BamHI, a PCR amplified fragment was bound to an NcoI restriction enzyme site and a BamHI restriction enzyme site of a pET-22b plasmid (product of Novagen). Then, the plasmid was transformed into a BL21 (DE3) Escherichia coli strain (product of Novagen) to form Escherichia coli […] that expresses cellulase.
Overnight cultures (1 ml) of Escherichia coli (δ) obtained in Production Example 4 and Escherichia coli (ε) obtained in Production Example 5 were respectively prepared as Comparative Example 2 and Comparative Example 4. An amount of 0.5 ml of each was inoculated in 5 ml of an LB culture solution (containing 100 mg/L of ampicillin) and was shake-cultured at 30° C. for 3 hours. In this manner, pre-culture solutions were prepared. The pre-culture solutions were each inoculated in 50 mL of a culture solution (1.2 g of yeast extract (Nihon Pharmaceutical Co., Ltd.), 0.6 g of polypeptone (Nihon Pharmaceutical Co., Ltd.), 0.47 g of dipotassium phosphate, 0.11 g of monopotassium phosphate, 0.35 g of ammonium sulfate, 0.66 g of disodium phosphate 12-hydrate, 0.02 g of sodium citrate dihydrate, 0.2 g of glycerol, 1.5 g of lactalbumin hydrolysate, 0.3 g of a defoaming agent (Shin-Etsu Chemical Co., Ltd., “KM-70”), 1 mM magnesium sulfate, trace metal solution (18.9 μg of calcium chloride, 500 μg of iron chloride (III), 9.0 μg of zinc sulfate heptahydrate, 5.1 μg of copper sulfate, 6.7 μg of manganese chloride tetrahydrate, 4.9 μg of cobalt chloride, 200 μg of ethylene-diamine-tetraacetic acid tetrasodium salt), 100 mg/L ampicillin). Culturing was initiated with use of a microbial culture system (ABLE Corporation, product name “BioJr. 8”), while the pH value and the temperature were maintained at 6.8 and 30° C. After the culturing was initiated, 0.15 mL of 1M IPTG was added. After 14 hours from the initiation of culturing, instillation of a glycerin/protein solution (50% of glycerin, 50 g/L of lactalbumin hydrolysate, a 33 g/L defoaming agent (Shin-Etsu Chemical Co., Ltd., “KM-70”), 100 mg/L ampicillin) was started. The culturing was terminated after 48 hours from the initiation and the culture solution was recovered. The whole protein in the culture solution was analyzed by SDS-PAGE. Based on the obtained amount of the protein band, the recombinant protein was quantified.
The dried cell density at the termination of the culturing was determined by the following processes (1) to (5):
as §1, with “applying” for “assigning”
Performance of this processes for several times clarified the proportional relationship between the turbidity of the culture solution and the dried cell density. Therefore, the dried cell density was obtained from the measured turbidity in each of Comparative Examples 2 to 4 and Examples 2 to 14.
The turbidity of a culture solution that is same as the culture solution used in the measurement of the dried cell density was measured using a turbidimeter (Shimadzu Corporation, UV-1700) and 1 ml of quarts cell.
For measurement, the culture solution was diluted in saline to have an appropriate absorbance. The absorbance of the same culture solution (but not containing bacteria) diluted at the same dilution as above was set as a blank. The turbidity of the culture solution was calculated by using the following formula: Turbidity of culture solution=[(measured turbidity of diluted culture solution)−(measured turbidity of blank)]×dilution rate.
The dried cell density and the turbidity of the culture solution were plotted to construct a graph in FIG. 3. […]

[4] = Examples 2-11, surfactant 1 wt %, supernatant of culture solution
[5] = Examples 2-11, surfactant 1 wt %, at termination of culturing
[6] = Examples 2-11, surfactant 1 wt %, culturing terminated after 48 hours
[7] = Comparative Example 3, surfactant 1 wt %, added earlier than in Example 2
[8] = Example 13, surfactant 0.1 wt %

Sodium cocaminopropionate [A-7]
Quantitative value of produced recombinant protein [1, 4]: 2.24 g/L | Dried cell density [2]: 2.32 g/L | Quantitative value of produced recombinant protein [2]: 0.04 g/L | Dried cell density [3, 5]: 22.1 g/L | Turbidity [3, 6]: 78.9

CCCCCCCCCCCCCCCC[N+](C)(C)C.[Cl-] [A-14, Cetyl trimethyl ammonium chloride]
Dried cell density [2]: 0.23 g/L | Quantitative value of produced recombinant protein [2]: <0.01 g/L | Turbidity [3, 7]: 1.07 | Dried cell density [3, 7]: 0.3 g/L | Quantitative value of produced recombinant protein ([3]; Comparative Example 3, surfactant 1 wt %, added earlier than in Example 2, whole protein in culture solution): <0.05 g/L | Dried cell density [3, 5]: 1.52 g/L | Turbidity [3, 6]: 5.43 | Quantitative value of produced recombinant protein [3, 4]: 0.06 g/L

Cured palm oil fatty acid amidopropyl dimethyl aminoacetate betaine [A-6]
Quantitative value of produced recombinant protein ([1]; Example 13, surfactant 0.1 wt %, supernatant): 1.82 g/L | Quantitative value of produced recombinant protein ([1]; Example 14, surfactant 5 wt %, supernatant): 1.53 g/L | Quantitative value of produced recombinant protein [1, 4]: 2.35 g/L | Turbidity [3, 8]: 75.2 | Dried cell density [3, 8]: 21.1 g/L | Turbidity ([3]; Example 14, surfactant 5 wt %): 52.1 | Dried cell density ([3]; Example 14, surfactant 5 wt %): 14.6 g/L | Dried cell density [3, 5]: 19.7 g/L | Turbidity [3, 6]: 70.3

Polyoxyethylene(3 mol)tridecyl ether sodium acetate [A-1]
Quantitative value of produced recombinant protein [1, 4]: 1.01 g/L | Dried cell density [3, 5]: 12.1 g/L | Turbidity [3, 6]: 43.2

— patent publication US9328369B2, “Process for production of useful substance, and surfactant for use in the process” (priority 2009, dated 2016)
